In PMC7320011, “Rationally designed ruthenium complexes for 1- and 2-photon photodynamic therapy” (Nature Communications, 2020):

Assay: In vivo tolerability: body weight, behaviour, H&E histology
Set-up: species or system mouse
Conditions: 2 mg kg^−1 i.v.
Procedure: The mice were anesthetized by injection of a 4% chloral hydrate aqueous solution (0.2 mL, 20 g^−1) before the treatment. The tumor volume and body weight were measured and recorded every 2 days. Tumor volume was calculated by the following formula:6 Volume=Length×Width^2/2.
The tumor and all major organs (including the heart, liver, spleen, lung, kidney, brain, intestine, and blood) were collected and a slice of each one was fixated with 4% paraformaldehyde. The obtained slices were stained with hematoxylin and eosin. The histological images were taken with a Carl Zeiss Axio Imager Z2 microscope.

With `COc1ccc(/C=C/c2ccnc(-c3cc(/C=C/c4ccc(OC)cc4)ccn3)c2)cc1.F[P-](F)(F)(F)(F)F.F[P-](F)(F)(F)(F)F.[Ru+2].c1ccc(-c2ccccn2)nc1.c1ccc(-c2ccccn2)nc1` [compound 7, [Ru(2,2′-bipyridine)2((E,E′)-4,4′-Bis[p-methoxystyryl]-2,2′-bipyridine)][PF6]2] the “histology of all other organs (H&E)” value (exposed to light) was “did not show any significant effect”, the “histology of tumor tissue (H&E)” value (exposed to light) was “pathological alterations caused by the PDT treatment” and the “behaviour of treated mice” value (nude mice) was “behaved normally, without signs of pain, stress or discomfort”. The “body weight of treated mice” value (nude mice) was “did not lose or gain weight”.
